The source of these data is ChEMBL document CHEMBL5113526, “Design, Synthesis, and Biological Evaluation of Androgen Receptor Degrading and Antagonizing Bifunctional Steroidal Analogs for the Treatment of Advanced Prostate Cancer” (J Med Chem, 2022).

The subject of series [1] is LNCaP. Put plainly: Antiproliferative activity against human LNCAP cells assessed as reduction in cell viability at 10 uM measured after 6 days by CellTiterGlo assay relative to control. The format is functional. As to conditions: time 6 day; for inhibition at 10 µM: Homo sapiens, LNCaP.
In series [2] the target is T1, Steroid 17-alpha-hydroxylase/17,20 lyase (Homo sapiens, UniProt P05093).
T1 sequence (P05093 whole entry): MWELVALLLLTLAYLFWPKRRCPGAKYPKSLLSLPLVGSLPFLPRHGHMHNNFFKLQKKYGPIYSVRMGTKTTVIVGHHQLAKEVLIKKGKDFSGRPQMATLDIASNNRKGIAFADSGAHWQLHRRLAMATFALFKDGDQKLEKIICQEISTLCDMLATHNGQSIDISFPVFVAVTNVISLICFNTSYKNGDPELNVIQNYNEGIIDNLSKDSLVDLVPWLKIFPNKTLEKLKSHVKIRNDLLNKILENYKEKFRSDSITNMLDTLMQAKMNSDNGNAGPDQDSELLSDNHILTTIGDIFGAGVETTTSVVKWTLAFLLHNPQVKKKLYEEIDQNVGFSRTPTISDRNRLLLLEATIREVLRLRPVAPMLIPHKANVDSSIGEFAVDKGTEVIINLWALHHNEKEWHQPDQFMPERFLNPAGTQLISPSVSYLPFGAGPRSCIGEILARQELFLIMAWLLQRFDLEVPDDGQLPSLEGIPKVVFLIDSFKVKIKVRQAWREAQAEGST
The experiment in a line: Inhibition of human recombinant CYP17A1 incubated for 5 mins in presence of NADPH by LC-MS/MS analysis. The format is ADME.

The target of series [3] is T2, Androgen receptor (Homo sapiens, UniProt P10275).
T2 sequence (P10275 whole entry): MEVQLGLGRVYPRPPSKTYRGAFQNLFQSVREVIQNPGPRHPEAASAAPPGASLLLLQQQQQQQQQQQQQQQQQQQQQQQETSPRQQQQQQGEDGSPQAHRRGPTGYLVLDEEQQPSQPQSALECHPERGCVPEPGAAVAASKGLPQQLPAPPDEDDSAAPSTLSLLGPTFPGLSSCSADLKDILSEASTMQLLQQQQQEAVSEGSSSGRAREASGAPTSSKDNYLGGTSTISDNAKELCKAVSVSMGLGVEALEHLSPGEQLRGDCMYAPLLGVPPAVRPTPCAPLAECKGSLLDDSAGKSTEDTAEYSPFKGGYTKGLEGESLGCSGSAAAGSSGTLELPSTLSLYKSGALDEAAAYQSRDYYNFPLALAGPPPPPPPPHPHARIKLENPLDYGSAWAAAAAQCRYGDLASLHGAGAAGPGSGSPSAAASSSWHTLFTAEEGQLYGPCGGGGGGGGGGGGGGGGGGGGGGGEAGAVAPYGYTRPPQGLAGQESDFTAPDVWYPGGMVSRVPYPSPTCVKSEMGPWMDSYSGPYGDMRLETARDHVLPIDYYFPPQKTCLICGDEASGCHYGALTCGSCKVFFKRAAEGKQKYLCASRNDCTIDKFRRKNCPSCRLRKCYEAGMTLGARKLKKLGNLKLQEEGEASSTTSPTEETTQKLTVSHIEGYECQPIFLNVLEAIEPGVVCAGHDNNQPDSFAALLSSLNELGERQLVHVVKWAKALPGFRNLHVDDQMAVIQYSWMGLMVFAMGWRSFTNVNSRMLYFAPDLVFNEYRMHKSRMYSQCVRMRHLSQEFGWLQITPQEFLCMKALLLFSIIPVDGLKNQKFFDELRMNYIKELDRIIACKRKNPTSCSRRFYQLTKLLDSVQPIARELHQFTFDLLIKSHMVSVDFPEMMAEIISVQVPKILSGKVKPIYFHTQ
Put plainly: Antagonist activity at DHT-induced Androgen receptor transcriptional activity in human HEK293 cells measured after 24 hrs by Steady-Glo reagent based assay. The format is cell-based.

For series [4], the target named is T2, Androgen receptor. Put plainly: Induction of AR degradation in human LNCap cells incubated for 24 hrs by sandwich ELISA analysis. The format is cell-based. Background: An ELISA detects its analyte on a solid surface through an enzyme-linked reagent.
Series [5] in a line: Terminal half life in Sprague-Dawley rat at 10 mg/kg, po measured up to 24 hrs by LC-MS/MS analysis. As to conditions: in vivo, read-out: beta t1/2 (converted). The class given is ADME, organism-based.
A short description of series [6]: Tmax in Sprague-Dawley rat at 10 mg/kg, po measured up to 24 hrs by LC-MS/MS analysis. The format is ADME, organism-based. The conditions noted are these: in vivo.
A short description of series [7]: Cmax in Sprague-Dawley rat at 10 mg/kg, po measured up to 24 hrs by LC-MS/MS analysis. The format is ADME, organism-based. More on the design: dose 10 mg/kg, time < 24 hrs, route po. As to conditions: in vivo.
The nature of series [8]: AUC (0 to t) in Sprague-Dawley rat at 10 mg/kg, po measured up to 24 hrs by LC-MS/MS analysis. The format is ADME, organism-based. Also on record: time < 24 hrs, dose 10 mg/kg, route po. As to conditions: in vivo.
Series [9] has as its target Voltage-gated inwardly rectifying potassium channel KCNH2 (Homo sapiens, UniProt Q12809). The experiment in a line: Inhibition of hERG potassium channel at -80 mV holding potential incubated for 3 mins by automated patch clamp method. The format is toxicity. A general note: hERG is a cardiac potassium channel; its block is linked to QT prolongation.
In series [10] the target is T3, Androgen receptor (Homo sapiens) (UniProt P10275).
T3 sequence (whole entry): T2 sequence (P10275 whole entry)
Put plainly: Induction of AR degradation in human LNCap cells at 20 uM measured after 24 hrs by Western blot analysis. The format is cell-based. A general note: In western blotting, separated proteins are transferred to a membrane and probed.

For series [11], the target named is T3, Androgen receptor (Homo sapiens). The experiment in a line: Induction of AR degradation in human LNCap cells at 20 uM by Western blot analysis. The format is cell-based. As to conditions: time 2-24 hrs, TDE = time-dependent effect.
In series [12] the test system is CWR22R. The experiment in a line: Antiproliferative activity against human 22Rv1 cells expressing AR-v7 assessed as reduction in cell viability measured after 6 days by CTG assay. The format is functional, cell-based.
The test system of series [13] is CWR22R. The experiment in a line: Antiproliferative activity against human 22Rv1 cells expressing AR-v7 assessed as reduction in cell viability at 30 uM measured after 6 days by CTG assay. The class given is functional. As to conditions: time 6 day.
Series [14] concerns Androgen receptor (Homo sapiens), P10275 [UNDEFINED MUTATION]. Put plainly: Induction of AR-v7 degradation in human 22Rv1 cells incubated for 24 hrs by Western blot analysis. The conditions noted are these: dose 1-20 µM, DDE = dose-dependent effect. The format is cell-based.
Series [15] in a line: Antagonist activity at androgen receptor W741L mutant (unknown origin) expressed in HEK293 cells incubated for 24 hrs by luciferase reporter assay. The class given is cell-based. The conditions noted are these: Homo sapiens, HEK293, 24 h.
For series [16], the target named is Androgen receptor (Homo sapiens, UniProt P10275, T878A). The experiment in a line: Antagonist activity at androgen receptor T877A mutant (unknown origin) expressed in HEK293 cells incubated for 24 hrs by luciferase reporter assay. The format is cell-based.
Sequence of Androgen receptor (Homo sapiens, UniProt P10275, T878A) (P10275 whole entry T878A): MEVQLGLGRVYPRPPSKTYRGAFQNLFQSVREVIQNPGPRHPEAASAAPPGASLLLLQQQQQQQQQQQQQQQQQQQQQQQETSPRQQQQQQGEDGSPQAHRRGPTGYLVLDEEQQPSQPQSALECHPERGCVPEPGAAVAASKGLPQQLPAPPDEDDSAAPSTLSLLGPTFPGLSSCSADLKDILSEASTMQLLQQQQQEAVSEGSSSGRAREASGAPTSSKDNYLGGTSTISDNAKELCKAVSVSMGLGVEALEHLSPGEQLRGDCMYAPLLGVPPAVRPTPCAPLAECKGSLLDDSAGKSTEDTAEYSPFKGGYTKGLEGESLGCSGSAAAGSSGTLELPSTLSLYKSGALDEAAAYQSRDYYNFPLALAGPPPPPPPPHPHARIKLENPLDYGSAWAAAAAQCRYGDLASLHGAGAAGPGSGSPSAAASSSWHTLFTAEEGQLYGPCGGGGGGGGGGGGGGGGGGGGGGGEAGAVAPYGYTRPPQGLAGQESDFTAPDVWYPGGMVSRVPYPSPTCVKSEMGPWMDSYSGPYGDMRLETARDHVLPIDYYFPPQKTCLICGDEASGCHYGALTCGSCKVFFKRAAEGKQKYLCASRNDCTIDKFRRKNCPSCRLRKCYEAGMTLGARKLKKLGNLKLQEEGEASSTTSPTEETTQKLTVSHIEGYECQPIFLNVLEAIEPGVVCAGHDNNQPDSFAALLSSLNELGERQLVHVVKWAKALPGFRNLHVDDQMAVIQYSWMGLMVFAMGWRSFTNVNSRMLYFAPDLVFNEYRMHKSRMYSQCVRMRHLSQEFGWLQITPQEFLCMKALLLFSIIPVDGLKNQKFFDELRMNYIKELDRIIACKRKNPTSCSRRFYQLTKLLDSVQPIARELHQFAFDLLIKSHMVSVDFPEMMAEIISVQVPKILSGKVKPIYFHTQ
In series [17] the target is Androgen receptor (Homo sapiens, UniProt P10275, F877L). The experiment in a line: Antagonist activity at androgen receptor F876L mutant (unknown origin) expressed in HEK293 cells incubated for 24 hrs by luciferase reporter assay. The format is cell-based.
Sequence of Androgen receptor (Homo sapiens, UniProt P10275, F877L) (P10275 whole entry F877L): as the sequence (P10275 whole entry T878A) above, with F877L, A878T counted along it
Series [18] in a line: Inhibition of TP-stimulated andogen-sensitive seminal vesicle growth in castrated Sprague-Dawley rat at 20 mg/kg, po administered for 10 days and measured after 24 hrs last post dose by hershberger assay relative to control. The class given is functional. As to conditions: […].
A short description of series [19]: Inhibition of TP-stimulated andogen-sensitive ventral prostate growth in castrated Sprague-Dawley rat at 20 mg/kg, po administered for 10 days and measured after 24 hrs last post dose by hershberger assay relative to control. The format is functional. As to conditions: time 10 day.
The subject of another series is LNCaP C4-2B. Put plainly: Antitumor activity against enzalutamide-resisitant human C4-2B cells xenografted in castrated BALB/c nude mouse assessed as change in tumor volume at 30 mg/kg, po qd measured after 4 weeks. The class given is functional.
Series [20] in a line: Toxicity in castrated BALB/c nude mouse xenografted with enzalutamide-resisitant human C4-2B cells assessed as body weight loss at 30 mg/kg, po qd measured after 28 days. The class given is organism-based, LNCaP C4-2B. The conditions noted are these: in vivo, 672 h, time 28 day.
Series [21] concerns LNCaP. Put plainly: cells. The conditions noted are these: Homo sapiens.
Description: Antiproliferative activity against human LNCAP cells assessed as reduction in cell viability measured after 6 days by CellTiter-Glo assay

Activity calls are given as the source filed them. The calls are words filed in the database; no cut-off is given here.

Sequence of Voltage-gated inwardly rectifying potassium channel KCNH2 (Q12809 whole entry): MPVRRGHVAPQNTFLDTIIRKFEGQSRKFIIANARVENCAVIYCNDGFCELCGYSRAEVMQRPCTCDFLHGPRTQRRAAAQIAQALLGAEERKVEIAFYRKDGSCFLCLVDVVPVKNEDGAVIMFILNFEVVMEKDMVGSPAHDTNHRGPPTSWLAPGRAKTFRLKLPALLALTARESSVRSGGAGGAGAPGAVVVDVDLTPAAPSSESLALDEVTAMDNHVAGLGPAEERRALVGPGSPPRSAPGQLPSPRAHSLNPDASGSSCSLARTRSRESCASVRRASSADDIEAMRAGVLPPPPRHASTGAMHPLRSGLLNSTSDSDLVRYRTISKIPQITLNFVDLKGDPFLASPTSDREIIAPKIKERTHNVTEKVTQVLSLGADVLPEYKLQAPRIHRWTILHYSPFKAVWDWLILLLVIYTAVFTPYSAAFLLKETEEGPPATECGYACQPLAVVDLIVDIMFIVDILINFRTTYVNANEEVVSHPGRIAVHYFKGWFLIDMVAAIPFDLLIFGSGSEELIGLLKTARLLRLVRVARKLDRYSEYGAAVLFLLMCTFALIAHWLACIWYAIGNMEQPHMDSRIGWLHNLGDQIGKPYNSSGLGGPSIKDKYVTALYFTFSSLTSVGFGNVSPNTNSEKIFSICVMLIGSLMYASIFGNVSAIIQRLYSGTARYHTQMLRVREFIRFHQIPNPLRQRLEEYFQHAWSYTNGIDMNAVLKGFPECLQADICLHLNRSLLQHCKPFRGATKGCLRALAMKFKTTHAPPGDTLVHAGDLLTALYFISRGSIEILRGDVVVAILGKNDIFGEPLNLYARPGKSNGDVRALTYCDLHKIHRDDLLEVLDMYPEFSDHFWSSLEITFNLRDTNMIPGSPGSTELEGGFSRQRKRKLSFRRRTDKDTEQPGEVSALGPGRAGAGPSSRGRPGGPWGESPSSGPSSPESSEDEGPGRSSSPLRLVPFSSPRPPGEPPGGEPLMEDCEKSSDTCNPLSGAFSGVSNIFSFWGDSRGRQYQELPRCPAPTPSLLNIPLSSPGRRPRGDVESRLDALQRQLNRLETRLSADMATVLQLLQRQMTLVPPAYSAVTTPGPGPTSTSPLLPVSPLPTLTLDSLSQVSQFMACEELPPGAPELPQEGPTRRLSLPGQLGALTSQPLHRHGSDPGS

As a reminder, the inhibition is the relative decrease from the control value, in per cent. The IC50 is the concentration needed to halve the response being measured. By DC50 is commonly meant the midpoint of the concentration-degradation curve. Higher therefore signals a less potent degrader. As a reminder, the Tmax is the time from dosing to the highest level. The term Cmax denotes the peak of the concentration-time curve. What is called AUC(0-t) is exposure summed from dosing to a finite time, without extrapolation to infinity. Higher therefore signals high exposure. One may read the inhibition in vivo as the relative decrease from the control value, in per cent. Consider `Cc1cn(C2=CC[C@H]3[C@@H]4CC=C5C[C@@H](NC(=O)c6ccncc6)CC[C@]5(C)[C@H]4CC[C@]23C)cn1`, for which the inhibition at 10 µM with LNCaP [1] amounted to 99.3%. Moreover, the IC50 is 2590 nM in series [2]; 247 nM against Androgen receptor [3]; 6470 nM in series [9]; 590 nM in the series with CWR22R [12]; 490 nM in series [15]; 209 nM against Androgen receptor [16]. In addition, the IC50 against Androgen receptor [17] was determined as 268 nM; in the series with LNCaP [21], 205 nM. This compound also gave a DC50 at Androgen receptor [4] of 2840 nM. Further, the half-life in [5] is 2.8 h. The Tmax in series [6] stood at 2.17 h. Moreover, the highest level in [7] (Cmax) was 2670 ng/mL. The compound further had an AUC(0-t) at 24 h in [8] of 24800 ng·h/mL. Further, the result in [10] was Active. Besides, the Activity result was “Tde” in series [11], “Dde” in series [14] and “Non-Toxic” in [20]. Also, the inhibition at 30 µM in the series with CWR22R [13] worked out at 37%. For the same compound, the inhibition in vivo at 20 mg/kg turned out to be 62% in [18] (Rattus norvegicus, Sprague-Dawley, 576 h) and 66% in [19] (Rattus norvegicus, Sprague-Dawley, 240 h). The T/C in the series on LNCaP C4-2B is given as -14%.

As to `C[C@]12CC[C@H](NC(=O)c3ccnnc3)CC1=CC[C@@H]1[C@@H]2CC[C@]2(C)C(n3ccnn3)=CC[C@@H]12`, the IC50 in [2] was greater than 3000 nM; on Androgen receptor [3] it was 9140 nM; in the series on LNCaP [21] it was 672 nM. Half-maximal degradation at Androgen receptor [4] (DC50) was put at 4360 nM.

On to `CNC(=O)c1ccc(N2C(=S)N(c3ccc(C#N)c(C(F)(F)F)c3)C(=O)C2(C)C)cc1F` [ENZALUTAMIDE], for which the “inhibition (INH)” value with LNCaP [1] was 68.83%; in series [18], 67%; in series [19], 67%.

For the compound `Cc1cn(C2=CC[C@H]3[C@@H]4CC=C5C[C@@H](NC(=O)c6ccnnc6)CC[C@]5(C)[C@H]4CC[C@]23C)cn1`, the inhibition at 10 µM in the series on LNCaP [1] worked out at 97%. Moreover, the figures for the IC50 (in series [2]; against Androgen receptor [3]; in the series on LNCaP [21]) were greater than 3000 nM, 244 nM and 466 nM, respectively. Also, the DC50 on Androgen receptor [4] is 2080 nM. The half-life in series [5] is 3.58 h. For the same compound, the Tmax in series [6] was 4.67 h. Further, the Cmax in series [7] was determined as 802 ng/mL. Also, the AUC(0-t) at 24 h in series [8] came to 5620 ng·h/mL.

Regarding `C[C@]12CC[C@H](NC(=O)c3ccncc3)CC1=CC[C@@H]1[C@@H]2CC[C@]2(C)C(n3ccnc3)=CC[C@@H]12`, the inhibition at 10 µM in the series on LNCaP [1] was determined as 97%. Besides, the IC50 at Androgen receptor [3] came to 511 nM; in series [9], 4990 nM; in the series on LNCaP [21], 317 nM. For the same compound, the half-life in [5] is 10 h. Moreover, the Tmax in series [6] is 2 h. The Cmax in [7] was 4500 ng/mL. In series [8], the AUC(0-t) at 24 h is 28800 ng·h/mL.
